One series has as its target T1, murine PKCβI-mVenus (Mus musculus, UniProt P68404).
T1 construct: fused on or other part: mVenus at the C-terminus
Kind of series: FPCBA saturation binding, HEK293 cells expressing PKCβI-mVenus (Example 3). The following applies: BIM1 2 μM, 2 h at 37° C., 4% FBS. The text has this: (§1) To investigate the potential for quantitative analysis of binding to PKCs expressed in cells, we evaluated whether 1-3 could readily achieve equilibrium, which is necessary for measurements of cellular equilibrium dissociation constants (Kd).

A further series addresses T2, PKCβI-mVenus (Mus musculus, UniProt P68404).
T2 construct: we generated expression vectors for eight full-length mouse isozymes; expressed in transfected cells; host or cells: HEK293 (ATCC CRL-1573), transient transfection with CMV-PKC betaI-mVenus-N1
Kind of series: Confocal microscopy of translocation of PKCβI-mVenus in HEK293 cells. The class given is cell-based. The following applies: 2 μM, 2 h. As to the method: FIGS. 36A-36D provide confocal and DIC micrographs of living HEK293 cells transiently transfected to express PKCβI-mVenus. […] Scale bars=10 microns.
This IRES vector was derived from a previously reported^52 variant encoding the somewhat less fluorescent protein Venus.
Living cells cultured on an 8-well chamber glass slide (Ibidi μ-Slide, 300 μL, 100,000 cells/well) were imaged with an inverted Leica TCS SP8 confocal laser-scanning microscope (63× oil-immersion objective). Fluorescent probes were excited at 405 nm and mVenus was excited at 488 nm. Emitted photons were collected from 425-500 nm and 500-650 nm. For imaging, transiently transfected HEK293 cells in complete medium (10% FBS) were plated on the Ibidi μ-Slide for 16 h to promote adherence. Concentrated stock solutions of fluorescent probes in DMSO were serially diluted 500-fold in serum-free DMEM medium to afford 2× stock solutions (0.2% DMSO). Half of the cell culture medium (150 μL) was carefully removed by pipet and gently replaced with the 2× stock solution of the probe in serum-free medium (final [FBS]˜5%). Cells were treated with probes (2 μM) at 37° C. for 2 h before imaging by microscopy. Laser power and PMT gain settings were identical for all images and controls within a given experiment for accurate comparisons of cellular fluorescence.

Series [1] relates to HEK293 cells expressing PKCβI-mVenus. The series can be described thus: Kinetics of uptake of probes in HEK293 cells transiently transfected with PKCβI-mVenus. It is filed as cell-based. The following applies: probe 1 μM, room temperature, BIM1 2 μM, 4% FBS. As to the method:
Cells were treated with probes and analyzed by flow cytometry. […] [BIM1]=2 μM. [FBS]=4%.
as §1
The cells were re-suspended in fresh reduced serum media lacking antibiotics (4% FBS) at a cell density of ˜500,000 cells per mL and were added to a 96-well plate (100 μL per well). […] Fluorescent probes were prepared as absorbance-normalized 1 mM DMSO stock solutions and diluted into reduced serum DMEM media lacking antibiotics (4% FBS) to achieve a final concentration of the probe of 1 μM ([…]). [BIM1]=2 μM. After addition of probes, cells were analyzed at room temperature every 5 min as singletons. Living cells with the greatest green fluorescence from expression of mVenus (top 20%, transfected) and the lowest green fluorescence (bottom 20%, non-transfected) were gated to obtain median PB450 values of uptake of the fluorescent probes. For the slower kinetics of uptake of probe 3, cells were analyzed every 20 min in triplicate. These curves were fitted with a one-phase association model (GraphPad Prism 9) to determine t1/2 values.

The subject of series [2] is cellular microtubules (HeLa cells). The series can be described thus: Pilot screen of NCI Diversity Set VI: inhibition of binding of PB-GABA-Taxol, with dose-response validation.
Series [3] concerns microtubule network of HeLa cells (mScarlet-α-Tubulin). Kind of series: Confocal microscopy of HeLa cells transfected with mScarlet-α-Tubulin. It is filed as cell-based. The following applies: 1 h at 37° C. As for the experimental part:
(FIG. 28C) Characterization of fluorescent microtubule phenotypes in HeLa cells transiently transfected with mScarlet-a-Tubulin and treated with the microtubule modulators (1 h at 37° C.). […] Scale bars=10 μm.
Cells were washed with PBS before treatment with PB-GABA-Taxol (100 nM) and (±)-verapamil hydrochloride (100 μM), with or without paclitaxel (10 μM) as a competitor, in phenol red-free DMEM supplemented with 10% FBS. Cells were incubated at 37° C. for 3 h prior to imaging by confocal microscopy. For experiments using HeLa cells transfected with mScarlet-α-tubulin, transient transfection was performed using a Invitrogen Lipofectamine 3000 Transfection kit (Thermo, L3000-075). Transfection used a 1× dose of lipid in OptiMEM (4% FBS) for 18 hours before washing of cells with PBS and treatment with the microtubule modulator for 1 h at 37° C.

Series [4] has as its system microtubules in living HeLa cells. Kind of series: Allosteric modulator assay with PB-GABA-Taxol in living HeLa cells (cellular Kb, α). The following applies: PB-GABA-Taxol 1.5 μM, verapamil 100 μM, 3 h, 37° C.
Source text: In this model, two compounds that engage tubulin at different binding sites influence the binding of each other through cooperativity. […] Smaller cooperativity factors (α) represent stronger effects on binding of the orthosteric probe. For these allosteric modulators, the apparent cellular affinity was defined as Kb, and the mathematical relationship between Kb and α is provided (equation 3).
The experimental method for allosteric binding assays was identical to the competition binding assays described previously. However, because it is inaccurate to describe an allosteric modulator with a competitive inhibitory constant (Ki), we used an allosteric modulator model (Kb) for data analysis. […] The observed occupancy of the orthosteric ligand is defined as KApp and is determined by the equilibrium dissociation constant of the orthosteric ligand (Kd), the concentration of allosteric ligand, its affinity for the receptor (Kb), and the strength by which the allosteric ligand affects receptor binding to the orthosteric ligand as defined by the cooperativity factor (a).
The subject of series [5] is T3, microtubules in living HeLa cells.
T3 construct: rows headed: PB-GABA-Taxol molecules/cell at saturation; other: calibration beads, flow cytometry; other: HeLa cell volume 4.5; cellular Kd of PB-GABA-Taxol for microtubules; other: HeLa cells, 4% FBS, 37° C., verapamil 100 μM, 3 h; other: 10% FBS vs
Kind of series: Saturation binding of PB-GABA-Taxol in living HeLa cells by flow cytometry. As for the experimental part:
To quantify the affinity of PB-GABA-Taxol for microtubules in living cells (cellular Kd), we developed the saturation binding method shown in FIG. 3. In this assay the cellular Kd was measured by varying the concentration of the fluorescent probe added to cells at equilibrium as established by kinetic assays of probe uptake. Total binding of this probe to specific and non-specific sites in cells in the presence of the efflux inhibitor verapamil was determined by flow cytometry. Non-specific binding was quantified separately by addition of excess paclitaxel with the probe under the same conditions. Subtraction of the linear non-specific binding contribution from the total binding curve was used analyze specific binding of the probe to tubulin of microtubules. […]
OptiMEM medium containing 4% FBS was prepared as 2× stock solutions of different concentrations of PB-GABA-Taxol by serial dilution (final [DMSO]=1.2%). […] The percentage of non-specific binding was determined as non-specific binding divided by total binding. The signal window (SW) was calculated as previously described^2: SW=[(mean top (maximum) signal−mean bottom (minimum) signal)−(3)*(SD top signal+SD bottom signal)]/(SD top signal), where SD=standard deviation.

For series [6], the system named is HeLa cells. Kind of series: Cellular viability of trypsinized HeLa cells under binding assay conditions. The class given is cell-based. The following applies: 180 min. As for the experimental part: Samples contained PB-GABA-Taxol (1.5 μM) unless otherwise noted. Viability was analyzed by flow cytometry at the time points shown. Dead cells were identified by changes in light scattering and staining with propidium iodide (3 μM). Changes in viability were less than 10% at 180 min under the conditions used for saturation binding and competitive binding assays, even in the presence of 100 μM paclitaxel.
For saturation binding assays, HeLa cells were incubated with PB-GABA-Taxol at 37° C. for 180 min in the presence of verapamil (100 μM).

The target in series [7] is crosslinked / purified microtubules. The following applies: previously reported; read-out: biochemical Kd for microtubules; cited from earlier work.
In series [8] the test system is HeLa cells. The series can be described thus: Time to equilibrium / cellular uptake of PB-GABA-Taxol by flow cytometry. The following applies: probe 1.5 μM.
Procedure: Tubes were incubated in a plate shaker, and at each time point 150 pL of cells were analyzed, in triplicate, in wells containing propidium iodide (3 μM final concentration) to identify live cells by flow cytometry. Median pacific blue fluorescence was plotted as a function of time and half-time measurements were determined using an Exponential One-phase association model (GraphPad Prism 9).
Series [9] can be described thus: Cytotoxicity assay, 48 h, flow cytometry. The class given is cell-based. The following applies: human, HeLa cells. As for the experimental part: Trypsinized HeLa cells were resuspended at 40,000 cells/mL in DMEM medium containing 10% FBS and seeded at 8,000 cells/200 μL/well in a treated 96-well plate. The cells were incubated for 16 h at 37° C. The medium was removed and DMEM medium containing 10% FBS treated with compounds (prepared as 3-fold serial dilutions, 0.1% DMSO content) was added. Cells were treated for 48 h at 37° C. before removal of treated medium, washing cells with PBS (100 μL), and addition of Trypsin-EDTA (50 μL) for 10 min at 37° C. Trypsin was neutralized and cells resuspended by addition of 100 μL of complete medium treated with propidium iodide (final concentration 3 μM). Cellular viabilities were analyzed by gating of cells that lack fluorescence of propidium iodide by flow cytometry.

Series [10] has as its system microtubules (taxane binding site) in living HeLa cells. The series can be described thus: Competition binding assay with PB-GABA-Taxol in living HeLa cells (cellular Ki). The following applies: read-out: cellular Ki; PB-GABA-Taxol 1.5 μM, verapamil 100 μM, 37° C., 4% FBS, 3 h.
Procedure: In this assay the cellular Kd was measured by varying the concentration of the fluorescent probe added to cells at equilibrium as established by kinetic assays of probe uptake. Total binding of this probe to specific and non-specific sites in cells in the presence of the efflux inhibitor verapamil was determined by flow cytometry. Non-specific binding was quantified separately by addition of excess paclitaxel with the probe under the same conditions. Subtraction of the linear non-specific binding contribution from the total binding curve was used analyze specific binding of the probe to tubulin of microtubules. Measurement of this cellular dissociation constant under equilibrium conditions further allowed conversion of the half-maximal inhibitory concentration (IC50) of unlabeled compounds into cellular inhibitory constants using an adaptation of the Cheng-Prusoff equation^44 for competitive modulators (Ki) or the allosteric equation^45 for non-competitive modulators (Kb and the cooperativity factor α) as implemented by GraphPad Prism.

“And” between values parts separate entries of the source, which are not always exact repeats. Equal entries are not always repeated.

T2 sequence (P68404 whole entry): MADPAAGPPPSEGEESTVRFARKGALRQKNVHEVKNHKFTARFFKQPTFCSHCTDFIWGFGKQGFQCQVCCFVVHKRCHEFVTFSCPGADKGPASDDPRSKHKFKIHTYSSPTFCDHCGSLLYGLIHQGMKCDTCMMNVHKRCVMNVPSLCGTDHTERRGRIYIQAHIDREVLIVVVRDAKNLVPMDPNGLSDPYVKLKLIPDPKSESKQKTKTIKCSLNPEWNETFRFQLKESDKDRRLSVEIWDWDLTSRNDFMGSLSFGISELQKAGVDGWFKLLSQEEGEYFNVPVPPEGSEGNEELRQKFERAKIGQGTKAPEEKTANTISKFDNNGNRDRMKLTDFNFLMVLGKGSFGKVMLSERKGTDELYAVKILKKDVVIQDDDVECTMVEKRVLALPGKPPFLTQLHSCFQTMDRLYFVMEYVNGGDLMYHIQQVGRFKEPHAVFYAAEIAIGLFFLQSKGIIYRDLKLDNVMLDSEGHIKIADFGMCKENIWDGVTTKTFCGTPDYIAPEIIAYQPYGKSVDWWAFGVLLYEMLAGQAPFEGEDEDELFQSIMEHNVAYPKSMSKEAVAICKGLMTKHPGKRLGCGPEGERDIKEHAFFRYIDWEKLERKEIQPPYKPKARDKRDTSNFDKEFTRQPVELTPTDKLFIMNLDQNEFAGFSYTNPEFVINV
T1 sequence (P68404 2-621 limits assumed): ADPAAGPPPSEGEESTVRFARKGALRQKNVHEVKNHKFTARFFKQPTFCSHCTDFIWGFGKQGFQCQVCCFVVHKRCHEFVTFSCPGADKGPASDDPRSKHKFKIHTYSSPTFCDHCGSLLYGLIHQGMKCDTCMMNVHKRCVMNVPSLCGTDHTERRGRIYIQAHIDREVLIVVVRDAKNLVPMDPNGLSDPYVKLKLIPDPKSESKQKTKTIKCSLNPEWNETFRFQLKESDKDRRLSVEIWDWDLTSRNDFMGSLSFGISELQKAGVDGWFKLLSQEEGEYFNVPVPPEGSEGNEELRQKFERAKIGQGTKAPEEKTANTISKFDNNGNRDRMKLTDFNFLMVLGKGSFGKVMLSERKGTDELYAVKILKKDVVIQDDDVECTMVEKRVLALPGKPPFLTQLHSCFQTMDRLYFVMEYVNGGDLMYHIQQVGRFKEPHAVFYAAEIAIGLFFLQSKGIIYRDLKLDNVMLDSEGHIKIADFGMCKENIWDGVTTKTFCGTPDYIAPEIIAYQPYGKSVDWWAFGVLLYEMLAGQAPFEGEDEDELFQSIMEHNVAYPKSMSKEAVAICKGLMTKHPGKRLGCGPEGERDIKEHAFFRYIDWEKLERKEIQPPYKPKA

As to `CCCCCCN(CCCCCCCCCCCCNC(=O)c1cc2ccc(O)cc2oc1=O)C(=O)O[C@@]12[C@H](O)[C@@H](C)[C@@]3(O)[C@@H](C=C(CO)C[C@]4(O)C(=O)C(C)=C[C@@H]34)[C@@H]1C2(C)C` [probe 2, (1aR,1bS,4aR,7aS,7bS,8R,9R,9aS)-4a,7b,9-trihydroxy-3-(hydroxymethyl)-1,1,6,8-tetramethyl-5-oxo-1,1a,1b,4,4a,5,7a,7b,8,9-decahydro-9aH-cyclopropa[3,4]benzo[1,2-e]azulen-9a-yl hexyl(12-(7-hydroxy-2-oxo-2H-chromene-3-carboxamido)dodecyl)carbamate], the “Cellular Kd for probe, PKCβI-mVenus” value on murine PKCβI-mVenus is “prevented reliable measurements of cellular affinity”. For the same molecule, the “translocation of PKCβI-mVenus” value on PKCβI-mVenus was “translocated to cellular membranes”. Besides, the “half-time (t1/2) of cellular uptake in transfected cells” value in series [1] came to 0.233 h.

`CCCCCCN(CCCCCCCCCCCCNC(=O)c1cc2ccc(N(CC)CC)cc2oc1=O)C(=O)O[C@@]12[C@H](O)[C@@H](C)[C@@]3(O)[C@@H](C=C(CO)C[C@]4(O)C(=O)C(C)=C[C@@H]34)[C@@H]1C2(C)C` [probe 3, (1aR,1bS,4aR,7aS,7bS,8R,9R,9aS)-4a,7b,9-trihydroxy-3-(hydroxymethyl)-1,1,6,8-tetramethyl-5-oxo-1,1a,1b,4,4a,5,7a,7b,8,9-decahydro-9aH-cyclopropa[3,4]benzo[1,2-e]azulen-9a-yl (12-(7-(diethylamino)-2-oxo-2H-chromene-3-carboxamido)dodecyl)(hexyl)carbamate]: the “translocation of PKCβI-mVenus” value on PKCβI-mVenus is listed as “translocated to cellular membranes”. The “half-time (t1/2) of cellular uptake in transfected cells” value in series [1] was > 1.67 h.

For `NC(=O)c1cc2c3ccccc3ccn2c1-c1ccccc1` [NSC 93427], the “inhibition of cellular fluorescence” value in series [2] (10 μM) is recorded as “nearly complete inhibition”. Further, the IC50 in series [2] (HeLa cells, PB-GABA-Taxol) is < 1000 nM. For the same molecule, in [3], the fluorescent microtubule phenotype entry is “dose-dependent disruption of microtubules”. The “cooperativity factor α” value in series [4] is 0.02. Moreover, the Kb in [4] (read-out: cellular Kb (allosteric modulator)) is 485 nM and 483 nM.

`CC(=O)O[C@H]1C(=O)[C@]2(C)[C@@H](OC(=O)CCCNC(=O)c3cc4cc(F)c(O)c(F)c4oc3=O)C[C@H]3OC[C@@]3(OC(C)=O)[C@H]2[C@H](OC(=O)c2ccccc2)[C@]2(O)C[C@H](OC(=O)[C@H](O)[C@@H](NC(=O)c3ccccc3)c3ccccc3)C(C)=C1C2(C)C` [PB-GABA-Taxol]: the “reduction of apparent affinity by ligand depletion in 10% FBS” value in [5] (10% FBS vs 4% or 1% FBS) is on record as 2 fold. Also, the Kd was 1700 ± 400 nM in [5] (HeLa cells, 4% FBS, 37° C., verapamil 100 μM, 3 h, read-out: cellular Kd of PB-GABA-Taxol for microtubules) and 265 nM in series [7]. In the series on HeLa cells [6] (37° C., verapamil 100 μM), the cells remaining viable is given as > 90%. In addition, the changes in viability entry in the series on HeLa cells [6] (binding assay conditions, even with 100 μM paclitaxel) is given as “less than 10%”. Further, the “half-time (t1/2) to equilibration of cellular fluorescence” value in the series with HeLa cells [8] (37° C., verapamil 100 μM) was determined as 0.55 h; in the series on HeLa cells [8] (room temperature (23° C.)) it was 1.45 h.

In the case of `COc1cc2c(c(OC)c1OC)-c1ccc(OC)c(=O)cc1[C@@H](NC(C)=O)CC2` [colchicine], the IC50 at 48 h in series [9] (with verapamil 25 µM, verapamil 25 μM) worked out at 13 ± 0.4 nM; in series [9] (without verapamil), 20 ± 8 nM.

In the case of `CC(=O)O[C@H]1C(=O)[C@@]2(C)[C@H]([C@H](OC(=O)c3ccccc3)[C@]3(O)C[C@H](O)C(C)=C1C3(C)C)[C@]1(OC(C)=O)CO[C@@H]1C[C@@H]2O` [baccatin III], in series [2] (25 μM, 3 h, normalized to DMSO (0%) and paclitaxel 10 μM (100%)), the “inhibition of binding of PB-GABA-Taxol to cellular microtubules” value came out at 28%. Further, in series [7], the dissociation constant (Kd) is 6700 ± 2000 nM. For the same molecule, the inhibition constant Ki in [10] came to 17000 ± 3000 nM.
